Results taken from PubChem BioAssay (NCI).
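Dose response: 5 concentrations. Exposure: 48 h. Format: 96-well plates. Endpoint: linear interpolation; highest concentration if not reached. GI50: concentration for 50% inhibition of growth. Definition used: TGI = concentration required for complete inhibition of growth.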

Legend:
Assay in all cases: growth of human tumour cells (NCI), 48 h
A549 NSCLC = tested on: A549 NSCLC
CCRF-CEM leukemia = tested on: CCRF-CEM leukemia
COLO 205 colon = tested on: COLO 205 colon
HCT-15 colon = tested on: HCT-15 colon
KM12 colon = tested on: KM12 colon
LOX IMVI melanoma = tested on: LOX IMVI melanoma
NCI-H23 lung = tested on: NCI-H23 lung
OVCAR-8 ovarian = tested on: OVCAR-8 ovarian
UACC-257 melanoma = tested on: UACC-257 melanoma
KM20L2 colon = tested on: KM20L2 colon

SMILES	TGI (A549 NSCLC) [µM]	TGI (CCRF-CEM leukemia) [µM]	TGI (COLO 205 colon) [µM]	TGI (HCT-15 colon) [µM]	TGI (KM12 colon) [µM]	TGI (LOX IMVI melanoma) [µM]	TGI (NCI-H23 lung) [µM]	TGI (OVCAR-8 ovarian) [µM]	TGI (UACC-257 melanoma) [µM]	TGI (KM20L2 colon) [µM]	GI50 (A549 NSCLC) [µM]	GI50 (CCRF-CEM leukemia) [µM]	GI50 (COLO 205 colon) [µM]	GI50 (HCT-15 colon) [µM]	GI50 (KM12 colon) [µM]	GI50 (LOX IMVI melanoma) [µM]	GI50 (NCI-H23 lung) [µM]	GI50 (OVCAR-8 ovarian) [µM]	GI50 (UACC-257 melanoma) [µM]
COc1cc([N+](=O)[O-])c(S(=O)(=O)O)cc1NS(=O)(=O)c1ccc(C)cc1	> 100	> 100	> 100	> 100	> 100	> 100	> 100	> 100	> 100	–	–	–	–	–	–	–	–	–	–
O=C(O)C1CCc2nnc(-c3ccccc3)n21 (configuration not stated)	> 100	> 100	> 100	> 100	> 100	–	–	> 100	> 100	> 100	–	–	–	–	–	–	–	–	–
Cc1ccc(NC(=O)CC/C(CC(=O)C(C)(C)C)=N/NC(=O)C(N)=O)cc1C	> 100	> 100	> 100	> 100	> 100	–	> 100	> 100	> 100	> 100	–	–	–	–	–	–	–	–	–
CC1=CC[C@@H]2C(C)(C)C(=O)CC[C@@]2(C)[C@@H]1COc1ccc2ccc(=O)oc2c1	71.2	70.9	39.4	56.4	23.7	48.6	61.2	39	31	–	10.9	5.48	10.6	13.4	9.15	17.6	15.3	5.69	12.3
Cc1nc2ccccc2c(=O)n1/N=C(\N=Nc1cc(Cl)ccc1Cl)c1cccc(-c2ccco2)c1	> 100	> 10	> 100	> 100	> 100	> 100	> 100	> 100	> 100	–	–	–	–	–	–	–	–	–	–
O=C(Cn1c(=O)c(-c2ccccc2)nc2ccccc21)c1ccc(Cl)cc1	> 100	> 100	> 100	> 100	> 100	> 100	> 100	> 100	> 100	–	58.3	> 100	> 100	> 100	98.1	55	> 100	51.9	> 100
C[C@@H](C1CCC2C3C(=CC(=O)[C@@]21C)[C@H](C)[C@]1(CCC(=O)O1)C1OC31)[C@H]1C[C@]2(C)O[C@@](C)(O1)OC2(C)C (some centres not stated)	> 100	> 100	> 100	> 100	–	> 100	> 100	> 100	–	> 100	–	–	–	–	–	–	–	–	–
CCOC(=O)C1=C(C)NC2SC(=O)/C(=C\c3ccccc3Cl)N2C1c1ccccc1 (configuration not stated)	> 100	> 100	> 100	> 100	> 100	> 100	> 100	> 100	> 100	–	> 100	> 100	> 100	> 100	> 100	> 100	> 100	> 100	> 100
